Assay results: patent US7902181B2, “Compounds 010” (AstraZeneca AB, priority 2007, dated 2011)
Counter-ions that a name gives are not always drawn.

The molecules below were run against Recombinant Human (rh) DPP1 (Homo sapiens, UniProt P53634) (assay: Fluorescence Assay for Recombinant Human (rh) DPP1). Conditions: rhDPP1; substrate H-Gly-Arg-AMC; pH5.0; 30 min pre-incubation, 60 min reaction at 22° C.; highest concentration 10 μM; read-out: DPP1 activity, pIC50 (converted).
Format: biochemical
Procedure: Fluorescence Assay for Recombinant Human (rh) DPP1
The activity of DPP1 was determined by measuring the enzymatic release of aminomethyl coumarin (AMC) from the peptide substrate (H-Gly-Arg-AMC), which leads to an increase in fluorescence intensity at λex=350 nm and λem=450 nm. The assay was carried out in black 384 well plates in a final volume of 50 μl at 22° C. The assay conditions contained the following: 25 mM piperazine buffer pH5.0; 50 mM NaCl, 5 mM DTT; 0.01% (v/v) Triton X-100; 100 μM H-Gly-Arg-AMC and rhDPP1 ([…]). Potential inhibitors were made up in DMSO and then diluted in the assay to give a final concentration of 1% (v/v) DMSO. A 12-point half-log dilution of the inhibitors (highest concentration 10 μM) was tested and the pIC50 determined using a 4-parameter logistic equation in a non-linear curve fitting routine. A standard DPP1 inhibitor (vinyl sulfone, see below) was used as a positive control in the assay. Routinely, inhibitors were pre-incubated with rhDPP1 for 30 min prior to the addition of the peptide substrate to start the reaction for a further 60 min at 22° C. After that the plates were immediately read in a fluorescence plate reader using the above emission and excitation wavelengths [modified from Kam, C M, Gotz, M G, Koot, G, McGuire, M J, Thiele, D L, Hudig, D & Powers, J C (2004). Arch Biochem Biophys, 427, 123-134 & McGuire, M J, Lipsky, P E & Thiele, D L (1992). Arch Biochem Biophys, 295, 280-288].

Sequence of Recombinant Human (rh) DPP1 (P53634 25-463): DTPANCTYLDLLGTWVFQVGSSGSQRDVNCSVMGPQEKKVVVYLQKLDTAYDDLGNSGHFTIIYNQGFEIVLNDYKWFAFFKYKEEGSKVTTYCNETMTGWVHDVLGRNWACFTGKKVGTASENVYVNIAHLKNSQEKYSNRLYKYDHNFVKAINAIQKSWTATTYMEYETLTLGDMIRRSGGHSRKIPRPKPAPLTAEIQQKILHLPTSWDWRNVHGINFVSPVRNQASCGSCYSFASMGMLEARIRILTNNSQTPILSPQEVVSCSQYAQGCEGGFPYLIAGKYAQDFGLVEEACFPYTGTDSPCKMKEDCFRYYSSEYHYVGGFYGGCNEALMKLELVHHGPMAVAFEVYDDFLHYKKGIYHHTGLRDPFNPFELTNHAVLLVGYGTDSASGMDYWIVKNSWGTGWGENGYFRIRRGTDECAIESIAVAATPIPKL

| IC50 | SMILES |
| --- | --- |
| 10 nM | N#C[C@H](Cc1ccc(-c2ccc3c(c2)CNS3(=O)=O)cc1)NC(=O)[C@@H]1CCCCN1 [Example 67, (2S)-N-{(1S)-1-cyano-2-[4-(1,1-dioxido-2,3-dihydro-1,2-benzisothiazol-5-yl)phenyl]ethyl} piperidine-2-carboxamide] |
| 6.31 nM | CNS(=O)(=O)c1ccc(-c2ccc(C[C@@H](C#N)NC(=O)[C@@H]3CCCCN3)cc2)cc1 [Example 71, (S)-N-((S)-1-Cyano-2-(4′-(N-methylsulfamoyl)biphenyl-4-yl)ethyl)piperidine-2-carboxamide Trifluoroacetate] |
| 63.1 nM | Cn1cc(-c2ccc(C[C@@H](C#N)NC(=O)[C@@H]3CCCCN3)cc2)cn1 [Example 26, (2S)-N-[(1S)-1-Cyano-2-[4-(1-methylpyrazol-4-yl)phenyl]ethyl]piperidine-2-carboxamide trifluoroacetate] |
| 15.8 nM | Cc1nccn1-c1cc(-c2ccc(C[C@@H](C#N)NC(=O)[C@@H]3CCCCN3)cc2)ccc1C#N [Example 62, (2S)-N-((1S)-1-Cyano-2-(4′-cyano-3′-(2-methyl-1H-imidazol-1-yl)biphenyl-4-yl)ethyl)piperidine-2-carboxamide] |
| 100 nM | N#C[C@H](Cc1ccc(-c2cccc(CN)c2)cc1)NC(=O)[C@@H]1CCCCN1 [Example 7, (S)-N-((S)-2-(3′-(Aminomethyl)biphenyl-4-yl)-1-cyanoethyl)piperidine-2-carboxamide Ditrifluoroacetate] |
| 5.01 nM | CCN1CCN(S(=O)(=O)c2ccc(-c3ccc(CC(C#N)NC(=O)[C@@H]4CCCCN4)cc3)cc2)CC1 (stereo partly drawn) [Example 107, ((2S)-N-(1-Cyano-2-(4′-(4-ethylpiperazin-1-ylsulfonyl)biphenyl-4-yl)ethyl)piperidine-2-carboxamide Ditrifluoroacetate] |
| 50.1 nM | Cn1c(=O)sc2cc(-c3ccc(C[C@@H](C#N)NC(=O)[C@@H]4CCCCN4)cc3)ccc21 [Example 98, (S)-N-((S)-1-Cyano-2-(4-(3-methyl-2-oxo-2,3-dihydrobenzo[d]thiazol-6-yl)phenyl)ethyl)piperidine-2-carboxamide] |
| 3160 nM | Cc1ncccc1-c1ccc(C[C@@H](C#N)NC(=O)[C@@H]2CCCCN2)cc1 [Example 52, (2S)-N-[(1S)-1-Cyano-2-[4-(2-methylpyridin-3-yl)phenyl]ethyl]piperidine-2-carboxamide trifluoroacetate] |
| 20 nM | CCc1ccc(-c2ccc(C[C@@H](C#N)NC(=O)[C@@H]3CCCCN3)cc2)cc1 [Example 70, (S)-N-((S)-1-Cyano-2-(4′-ethylbiphenyl-4-yl)ethyl)piperidine-2-carboxamide Trifluoroacetate] |
| 5.01 nM | N#C[C@H](Cc1ccc(-c2ccc3sc(=O)n(CCO)c3c2)cc1)NC(=O)[C@@H]1CCCCN1 [Example 54, (S)-N-((S)-1-Cyano-2-(4-(3-(2-hydroxyethyl)-2-oxo-2,3-dihydrobenzo[d]thiazol-5-yl)phenyl)ethyl)piperidine-2-carboxamide] |
| 251 nM | N#C[C@H](Cc1ccc(-c2cccnc2)cc1)NC(=O)[C@@H]1CCCCN1 [Example 10, (S)-N-((S)-1-Cyano-2-(4-(pyridin-3-yl)phenyl)ethyl)piperidine-2-carboxamide Trifluoroacetate] |
| 31.6 nM | CN(C)S(=O)(=O)c1ccc(-c2ccc(C[C@@H](C#N)NC(=O)[C@@H]3CCCCN3)cn2)cc1 [Example 80, (S)-N-((S)-1-Cyano-2-(6-(4-(N,N-dimethylsulfamoyl)phenyl)pyridin-3-yl)ethyl)piperidine-2-carboxamide Trifluoroacetate] |
| 316 nM | COc1ncccc1-c1ccc(C[C@@H](C#N)NC(=O)[C@@H]2CCCCN2)cc1 [Example 40, (2S)-N-[(1S)-1-Cyano-2-[4-(2-methoxypyridin-3-yl)phenyl]ethyl]piperidine-2-carboxamide trifluoroacetate] |
| 100 nM | CNC(=O)c1ccc(-c2ccc(C[C@@H](C#N)NC(=O)[C@@H]3CCCCN3)cc2)cc1 [Example 74, (S)-N-((S)-1-Cyano-2-(4′-(methylcarbamoyl)biphenyl-4-yl)ethyl)piperidine-2-carboxamide Trifluoroacetate] |
| 3.98 nM | N#C[C@H](Cc1ccc(-c2ccc(S(=O)(=O)N3CCC3)cc2)cc1)NC(=O)[C@@H]1CCCCN1 [Example 72, (S)-N-((S)-2-(4′-(Azetidin-1-ylsulfonyl)biphenyl-4-yl)-1-cyanoethyl)piperidine-2-carboxamide Trifluoroacetate] |
| 39.8 nM | C[S+]([O-])c1cc(-c2ccc(C[C@@H](C#N)NC(=O)[C@@H]3CCCCN3)cc2)ccc1C(N)=O (stereo partly drawn) [Example 61, (2S)-N-((1S)-2-(4′-Carbamoyl-3′-(methylsulfinyl)biphenyl-4-yl)-1-cyanoethyl)piperidine-2-carboxamide] |

| IC50 | SMILES |
| --- | --- |
| 200 nM | N#Cc1cccc(-c2ccc(C[C@@H](C#N)NC(=O)[C@@H]3CCN3)cc2)c1 [Example 19, (S)-N-((S)-1-Cyano-2-(3′-cyanobiphenyl-4-yl)ethyl)azetidine-2-carboxamide] |
| 126 nM | CC(=O)NCc1cccc(-c2ccc(C[C@@H](C#N)NC(=O)[C@@H]3CCCCN3)cc2)c1 [Example 90, (S)-N-((S)-2-(3′-(Acetamidomethyl)biphenyl-4-yl)-1-cyanoethyl)-piperidine-2-carboxamide Trifluoroacetate] |
| 31.6 nM | CN1CCCN(S(=O)(=O)c2ccc(-c3ccc(CC(C#N)NC(=O)[C@@H]4CCCCN4)cc3)cc2)CC1 (stereo partly drawn) [Example 108, (2S)-N-(1-Cyano-2-(4′-(4-methyl-1,4-diazepan-1-ylsulfonyl)biphenyl-4-yl)ethyl)piperidine-2-carboxamide Ditrifluoroacetate] |
| 2 nM | Cn1c(=O)sc2ccc(-c3ccc(C[C@@H](C#N)NC(=O)[C@@H]4CCCCN4)cc3)cc21 [Example 66, (S)-N-((S)-1-Cyano-2-(4-(3-methyl-2-oxo-2,3-dihydrobenzo[d]thiazol-5-yl)phenyl)ethyl) piperidine-2-carboxamide] |
| 158 nM | COc1ccc(-c2ccc(C[C@@H](C#N)NC(=O)[C@@H]3CCCCN3)cc2)cc1OC [Example 32, (2S)-N-[(1S)-1-Cyano-2-[4-(3,4-dimethoxyphenyl)phenyl]ethyl]piperidine-2-carboxamide trifluoroacetate] |
| 158 nM | CN1CCN(C(=O)c2ccc(-c3ccc(C[C@@H](C#N)NC(=O)[C@@H]4CCCCN4)cc3)cc2)CC1 [Example 76, (S)-N-((S)-1-Cyano-2-(4′-(4-methylpiperazine-1-carbonyl)biphenyl-4-yl)ethyl)piperidine-2-carboxamide Trifluoroacetate] |
| 63.1 nM | COc1ccc(-c2ccc(C[C@@H](C#N)NC(=O)[C@@H]3CCCCN3)cc2)cc1 [Example 25, (2S)-N-[(1S)-1-Cyano-2-[4-(4-methoxyphenyl)phenyl]ethyl]piperidine-2-carboxamide trifluoroacetate] |
| 12.6 nM | CN1Cc2cc(-c3ccc(C[C@@H](C#N)NC(=O)[C@@H]4CCCCN4)cc3)ccc2S1(=O)=O [Example 69] |
| 1260 nM | CN1CCN(c2ccc(-c3ccc(C[C@@H](C#N)NC(=O)[C@@H]4CCCCN4)cc3)cn2)CC1 [Example 47, (2S)-N-[(1S)-1-Cyano-2-[4-[6-(4-methylpiperazin-1-yl)pyridin-3-yl]phenyl]ethyl]piperidine-2-carboxamide trifluoroacetate] |
| 100 nM | N#C[C@H](Cc1ccc(-c2ccc(F)c(F)c2)cc1)NC(=O)[C@@H]1CCCCN1 [Example 29, (2S)-N-[(1S)-1-Cyano-2-[4-(3,4-difluorophenyl)phenyl]ethyl]piperidine-2-carboxamide trifluoroacetate] |
| 2000 nM | N#C[C@H](Cc1ccc(-c2ccccc2OCc2ccccc2)cc1)NC(=O)[C@@H]1CCCCN1 [Example 51, (2S)-N-[(1S)-1-Cyano-2-[4-(2-phenylmethoxyphenyl)phenyl]ethyl]piperidine-2-carboxamide trifluoroacetate] |
| 1000 nM | N#Cc1ccc(-c2cccc(C[C@@H](C#N)NC(=O)[C@@H]3CCCCN3)c2)cc1 [Example 100, (S)-N-((S)-1-Cyano-2-(4′-cyanobiphenyl-3-yl)ethyl)piperidine-2-carboxamide Trifluoroacetate] |
| 794 nM | N#C[C@H](Cc1ccc(-c2ccccc2O[C@@H]2CCNC2)cc1)NC(=O)[C@@H]1CCCCN1 [Example 13, (S)-N-((S)-1-Cyano-2-(2′-((R)-pyrrolidin-3-yloxy)biphenyl-4-yl)ethyl)piperidine-2-carboxamide Ditrifluoroacetate] |
| 63.1 nM | N#C[C@H](Cc1ccc(-c2ccc(O)cc2)cc1)NC(=O)[C@@H]1CCCCN1 [Example 23, (2S)-N-[(1S)-1-Cyano-2-[4-(4-hydroxyphenyl)phenyl]ethyl]piperidine-2-carboxamide trifluoroacetate] |
| 2000 nM | Cc1ccccc1-c1ccc(C[C@@H](C#N)NC(=O)[C@@H]2CCCCN2)cc1 [Example 50, (2S)-N-[(1S)-1-Cyano-2-[4-(2-methylphenyl)phenyl]eth-yl]piperidine-2-carboxamide trifluoroacetate] |
